Laboratory results taken from doi:10.1101/2024.06.25.600598v1 (biorxiv, 2024).
Counter-ions that a name gives are not always drawn. Like-named read-outs stand apart in the source and are kept apart here. Numbered stars: 1 amine (or outer) side, 2 acyl side, 3 side chain; on linkers, the order of the positions; unused ones are H or OH. Bridge positions count the residues as written; N and C are the ends. Square brackets hold non-standard residues; d marks the D form. Side chains are listed from the residue outwards. Peptide text beside a SMILES is read from it. * marks the point of attachment. Ethylenediamine = C(CN[*:2])N[*:1]; Hyp = O=C(O)[C@@H]1C[C@@H](O)CN1; hArg = N=C(N)NCCCC[C@H](N)C(=O)O; Phg = N[C@H](C(=O)O)c1ccccc1; CO = O=C([*:1])[*:2]; Bn = c1ccc(C*)cc1; Mpa = O=C(O)CCS

How the values were obtained:
[1] = biological target: T1, fibroblast activation protein (FAP; rhFAP, SLIN-tagged hFAP) (Homo sapiens, UniProt Q12884); experiment: biochemical
T1 sequence (Q12884 35-760): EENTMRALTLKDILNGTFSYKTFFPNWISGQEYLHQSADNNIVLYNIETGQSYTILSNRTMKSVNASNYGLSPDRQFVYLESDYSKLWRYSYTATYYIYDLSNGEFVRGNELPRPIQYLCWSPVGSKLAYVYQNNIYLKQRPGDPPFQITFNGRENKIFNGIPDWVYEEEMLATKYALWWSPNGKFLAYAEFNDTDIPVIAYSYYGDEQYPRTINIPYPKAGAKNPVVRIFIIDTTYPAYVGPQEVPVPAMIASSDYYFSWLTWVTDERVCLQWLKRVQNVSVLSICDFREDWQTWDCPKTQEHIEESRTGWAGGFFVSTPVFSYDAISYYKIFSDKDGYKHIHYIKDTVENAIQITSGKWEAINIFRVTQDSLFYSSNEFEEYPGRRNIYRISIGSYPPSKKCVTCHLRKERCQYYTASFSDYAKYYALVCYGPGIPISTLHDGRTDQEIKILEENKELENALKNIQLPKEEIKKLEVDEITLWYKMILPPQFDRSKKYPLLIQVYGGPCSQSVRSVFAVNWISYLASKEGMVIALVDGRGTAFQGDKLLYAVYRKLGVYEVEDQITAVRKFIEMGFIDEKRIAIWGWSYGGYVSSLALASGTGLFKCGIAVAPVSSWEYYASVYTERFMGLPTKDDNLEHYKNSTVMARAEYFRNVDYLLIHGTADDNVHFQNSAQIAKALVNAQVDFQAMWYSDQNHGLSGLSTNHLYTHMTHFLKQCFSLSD

[2] = biological target: T1, fibroblast activation protein (FAP; rhFAP, SLIN-tagged hFAP); details: 2 µM; inhibitor
[3] = biological target: T1, fibroblast activation protein (FAP; rhFAP, SLIN-tagged hFAP); experiment: biochemical; remark: listed apart in the source

| Compound | Ki [1] | Relative inhibition (%), activity assay [2] | Ki [3] |
| --- | --- | --- | --- |
| CC(=C(CCOC(=O)C(C)C)SSC(CCOC(=O)C(C)C)=C(C)N(C=O)Cc1cnc(C)nc1N)N(C=O)Cc1cnc(C)nc1N (stereo in doubt) [Sulbutiamine] | 5.8 µM | 15% |  |
| Nc1c2ccccc2nc2ccccc12 [9-Aminoacridine] |  |  | 12.4 µM |
| CCN1CCN(Cc2ccc(Nc3ncc(F)c(-c4cc(F)c5nc(C)n(C(C)C)c5c4)n3)nc2)CC1 [Abemaciclib (methanesulfonate)] | 0.8 µM | 5% |  |
| COc1ccc(C(=O)N2CCCC2=O)cc1 [Aniracetam] |  |  | 40.4 µM |
| CCOc1nc2cccc(C(=O)OCc3oc(=O)oc3C)c2n1Cc1ccc(-c2ccccc2-c2noc(=O)[nH]2)cc1 [Azilsartan medoxomil] | 3.9 µM | 11% |  |
| CCOC(=O)OC(C)OC(=O)[C@@H]1N2C(=O)[C@@H](NC(=O)[C@H](N)c3ccccc3)[C@H]2SC1(C)C (some centres unmarked) [Bacampicillin (hydrochloride)] |  |  | 12.7 µM |
| O=c1cc(-c2ccccc2)oc2cc(O)c(O)c(O)c12 [Baicalein] |  |  | 36.8 µM |
| Cn1c(CCCC(=O)O)nc2cc(N(CCCl)CCCl)ccc21 [Bendamustine] |  |  | 25 µM |
| NC(=NCc1ccccc1)NC(=O)c1nc(Cl)c(N)nc1N [Benzamil (hydrochloride)] |  |  | 35.3 µM |
| CCCC[C@H](NC(C)=O)C(=O)N[C@H]1CC(=O)NCCCC[C@@H](C(=O)O)NC(=O)[C@H](Cc2c[nH]c3ccccc23)NC(=O)[C@H](CCCN=C(N)N)NC(=O)[C@@H](Cc2ccccc2)NC(=O)[C@H](Cc2cnc[nH]2)NC1=O [Bremelanotide (Acetate)] |  |  | 25 µM |
| C=CCN1C[C@H](C(=O)N(CCCN(C)C)C(=O)NCC)C[C@@H]2c3cccc4[nH]cc(c34)C[C@H]21 [Cabergoline] |  |  | 17.5 µM |
| CC1(C)S[C@@H]2[C@H](NC(=O)C(C(=O)Oc3ccc4c(c3)CCC4)c3ccccc3)C(=O)N2[C@H]1C(=O)O (some centres unmarked) [Carindacillin (sodium)] |  |  | 14.5 µM |
| O=NN(CCCl)C(=O)NCCCl [Carmustine] |  |  | 17.1 µM |
| CC(=O)OCC1=C(C(=O)O)N2C(=O)[C@@H](NC(=O)CSC(=NC(C)C)NC(C)C)[C@H]2SC1 [Cefathiamidine] |  |  | 23.6 µM |
| Cc1nnc(SCC2=C(C(=O)O)N3C(=O)[C@@H](NC(=O)Cn4cc(Cl)c(=O)c(Cl)c4)[C@H]3SC2)s1 [Cefazedone] |  |  | 25.6 µM |
| CO/N=C(\C(=O)N[C@@H]1C(=O)N2C(C(=O)O)=C(CSc3nnnn3C)CS[C@H]12)c1csc(N)n1 [Cefmenoxime (hydrochloride)] |  |  | 25.1 µM |
| NCc1ccccc1CC(=O)N[C@@H]1C(=O)N2C(C(=O)O)=C(CSc3nnnn3CC(=O)O)CS[C@H]12 [Ceforanide] |  |  | 10.7 µM |
| COCC1=C(C(=O)OC(C)OC(=O)OC(C)C)N2C(=O)[C@@H](NC(=O)/C(=N\OC)c3csc(N)n3)[C@H]2SC1 (some centres unmarked) [Cefpodoxime Proxetil] |  |  | 34.6 µM |
| NC(=O)c1cc[n+](CC2=C(C(=O)O)N3C(=O)[C@@H](NC(=O)[C@@H](c4ccccc4)S(=O)(=O)[O-])[C@H]3SC2)cc1 [Cefsulodin (sodium)] |  |  | 41.4 µM |
| CC(C)(O/N=C(\C(=O)N[C@@H]1C(=O)N2C(C(=O)[O-])=C(C[n+]3ccccc3)CS[C@H]12)c1csc(N)n1)C(=O)O [Ceftazidime (pentahydrate)] |  |  | 20.8 µM |
| CO/N=C(\C(=O)N[C@@H]1C(=O)N2C(C(=O)O)=C(CSC(=O)c3ccco3)CS[C@H]12)c1csc(N)n1 [Ceftiofur (sodium)] |  |  | 23 µM |
| CC(C)(C)OC(=O)N[C@H]1CCCCC/C=C\[C@@H]2C[C@@]2(C(=O)NS(=O)(=O)C2CC2)NC(=O)[C@@H]2C[C@@H](OC(=O)N3Cc4cccc(F)c4C3)CN2C1=O [Danoprevir] |  |  | 19.3 µM |
| CC[N+](C)(C)c1cccc(O)c1 [Edrophonium (chloride)] |  |  | 35.3 µM |
| CC/C=C\C/C=C\C/C=C\C/C=C\C/C=C\CCCC(=O)O [Eicosapentaenoic Acid] |  |  | 15.8 µM |
| N=C(N)NCCCC[C@@H]1NC(=O)CCSSC[C@@H](C(N)=O)NC(=O)[C@@H]2CCCN2C(=O)[C@H](Cc2c[nH]c3ccccc23)NC(=O)[C@H](CC(=O)O)NC(=O)CNC1=O [Eptifibatide] ([Mpa][hArg]GDWPC-NH2; disulfide 1-7) |  |  | 27.8 µM |
| CCOc1ccc2nc3cc(N)ccc3c(N)c2c1 [Ethacridine (lactate monohydrate)] |  |  | 14.4 µM |
| Cc1oc(=O)oc1COC(=O)C1=C([C@H]2CCCO2)S[C@@H]2[C@@H]([C@@H](C)O)C(=O)N12 [Faropenem daloxate] |  |  | 13.1 µM |

| Compound | Ki [1] | Relative inhibition (%), activity assay [2] | Ki [3] |
| --- | --- | --- | --- |
| CCCCc1nc(C)c(CC(=S)N(C)C)c(=O)n1Cc1ccc(-c2ccccc2-c2nnn[nH]2)cc1 [Fimasartan] |  |  | 14.6 µM |
| Cc1c(-c2ccccc2)oc2c(C(=O)OCCN3CCCCC3)cccc2c1=O [Flavoxate (hydrochloride)] |  |  | 33.6 µM |
| Cc1ncc(NC(=O)c2ccc(CN3CCN(C)CC3)c(C(F)(F)F)c2)cc1Nc1nccc(-c2cccnc2)n1 [Flumatinib (mesylate)] |  |  | 12.2 µM |
| CCC(=O)O[C@@H](O[P@](=O)(CCCCc1ccccc1)CC(=O)N1C[C@H](C2CCCCC2)C[C@H]1C(=O)O)C(C)C [Fosinopril (sodium)] |  |  | 11.6 µM |
| CC(C)C[C@H](NC(=O)CNC(=O)c1cc(Cl)ccc1Cl)B1OC(=O)C(CC(=O)O)(CC(=O)O)O1 [Ixazomib citrate] |  |  | 25.1 µM |
| CC(C)C[C@H](NC(=O)CNC(=O)c1cc(Cl)ccc1Cl)B(O)O [Ixazomib] |  |  | 33 µM |
| Cc1ccc(NC(=O)C2(c3ccc4c(c3)OC(F)(F)O4)CC2)nc1-c1cccc(C(=O)O)c1 [Lumacaftor] |  |  | 10.1 µM |
| Cc1ccc(NC(=O)c2ccc(CN3CCN(C)CC3)cc2)cc1Nc1nc(-c2cccnc2)cs1 [Masitinib] |  |  | 43.9 µM |
| CCOC(=O)[C@@](C)(N)Cc1ccc(O)c(O)c1 [Methyldopate] |  |  | 29.6 µM |
| CN(C)c1ccc2nc3ccc(=[N+](C)C)cc-3sc2c1 [Methylene blue (trihydrate)] |  |  | 19 µM |
| O=C1c2c(O)ccc(O)c2C(=O)c2c(NCCNCCO)ccc(NCCNCCO)c21 [Mitoxantrone (dihydrochloride)] |  |  | 11.6 µM |
| COC(=O)c1ccc2c(c1)NC(=O)/C2=C(\Nc1ccc(N(C)C(=O)CN2CCN(C)CC2)cc1)c1ccccc1 [Nintedanib esylate] |  |  | 27.7 µM |
| NC(=O)c1cccc2cn(-c3ccc([C@@H]4CCCNC4)cc3)nc12 [Niraparib (tosylate)] |  |  | 16.3 µM |
| NCCCC[C@@H]1NC(=O)[C@@H](Cc2c[nH]c3ccccc23)NC(=O)[C@H](c2ccccc2)NC(=O)[C@@H]2C[C@@H](OC(=O)NCCN)CN2C(=O)[C@H](Cc2ccccc2)NC(=O)[C@H](Cc2ccc(OCc3ccccc3)cc2)NC1=O [Pasireotide (acetate)] (cyclo([Hyp]([CO-Ethylenediamine])[Phg][dW]KY(Bn)F)) |  |  | 19.9 µM |
| Nc1ccc2cc3ccc(N)cc3nc2c1 [Proflavine (hemisulfate)] |  |  | 26.7 µM |
| C=CC[N+]1([C@H]2C[C@H]3[C@@H]4CC[C@H]5C[C@H](OC(C)=O)[C@@H](N6CCCCC6)C[C@]5(C)[C@H]4CC[C@]3(C)[C@H]2OC(=O)CC)CCCCC1 [Rapacuronium bromide] |  |  | 14.1 µM |
| CO[C@H]1/C=C/O[C@@]2(C)Oc3c(C)c(O)c4c(O)c(c(/C=N/N5CCN(C6CCCC6)CC5)c(O)c4c3C2=O)NC(=O)/C(C)=C\C=C\[C@H](C)[C@H](O)[C@@H](C)[C@@H](O)[C@@H](C)[C@H](OC(C)=O)[C@@H]1C [Rifapentine] |  |  | 11.9 µM |
| CNCc1ccc(-c2[nH]c3cc(F)cc4c3c2CCNC4=O)cc1 [Rucaparib] |  |  | 44.4 µM |
| CC(C)=CCOc1ccc(/C=C/C(=O)c2ccc(OCC=C(C)C)cc2OCC(=O)O)cc1 [Sofalcone] |  |  | 16 µM |
| COc1cc(C)c2c(Oc3cccc(C(F)(F)F)c3)c(OC)cc(NC(C)CCCN)c2n1 (centres unmarked) [Tafenoquine (Succinate)] |  |  | 16.3 µM |
| CN1Cc2c(Cl)cc(Cl)cc2[C@H](c2cccc(S(=O)(=O)NCCOCCOCCNC(=O)NCCCCNC(=O)NCCOCCOCCNS(=O)(=O)c3cccc([C@@H]4CN(C)Cc5c(Cl)cc(Cl)cc54)c3)c2)C1 [Tenapanor] |  |  | 24.9 µM |
| COc1cc(NCc2ccc3nc(N)nc(N)c3c2C)cc(OC)c1OC [Trimetrexate] |  |  | 27.2 µM |
| CCCc1nc(C)c2c(=O)[nH]c(-c3cc(S(=O)(=O)N4CCN(CC)CC4)ccc3OCC)nn12 [Vardenafil (hydrochloride)] |  |  | 39.7 µM |
| CC(=O)O[C@H]1C[C@@H]2CC[C@@H]3[C@H](CC[C@@]4(C)[C@H]3C[C@H]([N+]3(C)CCCCC3)[C@@H]4OC(C)=O)[C@@]2(C)C[C@@H]1N1CCCCC1 [Vecuronium (bromide)] |  |  | 25.8 µM |
| CC[C@@H]1C(=O)N(C)c2cnc(Nc3ccc(C(=O)N[C@H]4CC[C@H](N5CCN(CC6CC6)CC5)CC4)cc3OC)nc2N1C(C)C [Volasertib] |  |  | 10.9 µM |
| COc1cc(C(=O)NS(=O)(=O)c2ccccc2C)ccc1Cc1cn(C)c2ccc(NC(=O)OC3CCCC3)cc12 [Zafirlukast] |  |  | 13.4 µM |
